Assay results reported in the supplement of paper PMC10307832.

Assays:
Assay in all cases: relative viability (nuclei count vs DMSO), 5 days (fraction); higher = more cells survive
PAC-1 + Tozasertib = compound: C=CCc1cccc(/C=N/NC(=O)CN2CCN(Cc3ccccc3)CC2)c1O [PAC-1] + Cc1cc(Nc2cc(N3CCN(C)CC3)nc(Sc3ccc(NC(=O)C4CC4)cc3)n2)n[nH]1 [Tozasertib] (partner 0.1 µM)
Procedure, shortened: (§1)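 One day after seeding in 1536-well plates, lung cancer cell lines were dosed by pin tool. Dosing was either single-drug or a fixed anchor-drug dose plus five library-drug doses (not always all listed) in √10 steps. After 5 days, nuclei were stained in one fix-and-stain step and counted on 4× images, and relative viability is the nuclei count of treated wells over that of vehicle wells, given as the median of duplicate plates.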

PAC-1 + Linsitinib = compound: C=CCc1cccc(/C=N/NC(=O)CN2CCN(Cc3ccccc3)CC2)c1O [PAC-1] + C[C@]1(O)C[C@@H](c2nc(-c3ccc4ccc(-c5ccccc5)nc4c3)c3c(N)nccn32)C1 [Linsitinib] (partner 1 µM)
Procedure, shortened: as §1

Ibrutinib + Crizotinib = compound: C=CC(=O)N1CCC[C@@H](n2nc(-c3ccc(Oc4ccccc4)cc3)c3c(N)ncnc32)C1 [Ibrutinib] + C[C@@H](Oc1cc(-c2cnn(C3CCNCC3)c2)cnc1N)c1c(Cl)ccc(F)c1Cl [Crizotinib] (partner 1 µM)
Procedure, shortened: as §1

Ibrutinib + Decitabine = compound: C=CC(=O)N1CCC[C@@H](n2nc(-c3ccc(Oc4ccccc4)cc3)c3c(N)ncnc32)C1 [Ibrutinib] + Nc1ncn([C@H]2C[C@H](O)[C@@H](CO)O2)c(=O)n1 [Decitabine] (partner 2 µM)
Procedure, shortened: as §1

| Cell Line | relative viability (PAC-1 + Tozasertib; first compound 0.02 µM) | relative viability (PAC-1 + Tozasertib; first compound 0.06325 µM) | relative viability (PAC-1 + Tozasertib; first compound 0.2 µM) | relative viability (PAC-1 + Tozasertib; first compound 2 µM) | relative viability (PAC-1 + Linsitinib; first compound 0.02 µM) | relative viability (PAC-1 + Linsitinib; first compound 0.06325 µM) | relative viability (PAC-1 + Linsitinib; first compound 0.2 µM) | relative viability (PAC-1 + Linsitinib; first compound 2 µM) | relative viability (Ibrutinib + Crizotinib; first compound 0.005 µM) | relative viability (Ibrutinib + Crizotinib; first compound 0.01581 µM) | relative viability (Ibrutinib + Crizotinib; first compound 0.05 µM) | relative viability (Ibrutinib + Crizotinib; first compound 0.1581 µM) | relative viability (Ibrutinib + Crizotinib; first compound 0.5 µM) | relative viability (Ibrutinib + Decitabine; first compound 0.005 µM) | relative viability (Ibrutinib + Decitabine; first compound 0.01581 µM) | relative viability (Ibrutinib + Decitabine; first compound 0.05 µM) | relative viability (Ibrutinib + Decitabine; first compound 0.1581 µM) | relative viability (Ibrutinib + Decitabine; first compound 0.5 µM) |
| --- | --- | --- | --- | --- | --- | --- | --- | --- | --- | --- | --- | --- | --- | --- | --- | --- | --- | --- |
| EKVX | 0.426 | 0.393 | 0.339 | 0.365 | 1.03 | 1.02 | 0.941 | 0.917 | 0.995 | 0.743 | 1.05 | 0.964 | 0.562 | 0.281 | 0.247 | 0.421 | 0.315 | 0.226 |
| EMC-BAC-2 | 0.297 | 0.263 | 0.265 | 0.274 | 0.8 | 0.815 | 0.825 | 0.82 | 0.79 | 0.679 | 0.731 | 0.813 | 0.726 | 0.91 | 0.962 | – | – | 0.994 |
| EPLC-272H | 0.257 | 0.314 | 0.273 | 0.278 | – | 1.14 | 0.934 | 1.07 | – | 0.806 | 0.809 | 1.06 | 0.522 | – | 0.318 | 0.327 | 0.381 | 0.275 |
| H3255 | 0.66 | 0.656 | 0.606 | 0.638 | 1.05 | 0.952 | 0.862 | 0.913 | 0.873 | 0.81 | 0.729 | 0.874 | 0.429 | 0.575 | 0.532 | – | 0.636 | 0.261 |
| HARA | 0.108 | 0.115 | 0.136 | 0.111 | 0.873 | 0.958 | 0.851 | 1.09 | 1.16 | 0.913 | 1.03 | 1.08 | 0.883 | 0.5 | 0.486 | 0.376 | 0.468 | 0.264 |
| HCC-15 | 0.398 | 0.458 | 0.449 | 0.378 | 0.967 | 0.876 | 0.795 | 0.935 | 0.889 | 0.785 | 0.873 | 0.828 | 0.837 | 0.711 | 0.57 | 0.661 | 0.581 | 0.662 |
| HCC-44 | 0.989 | 1.04 | 0.94 | 0.877 | 0.684 | 0.68 | 0.678 | 0.712 | 0.813 | 0.782 | 0.801 | 0.866 | 0.743 | 1 | 0.96 | 1 | 0.976 | 0.988 |
| HCC-78 | 0.486 | 0.399 | 0.496 | 0.342 | 0.565 | 0.607 | 0.544 | 0.467 | 0.347 | 0.328 | 0.289 | 0.335 | 0.247 | – | 0.824 | 0.677 | 0.543 | 0.702 |
| HCC-366 | 0.117 | 0.0944 | 0.121 | 0.0773 | 0.587 | 0.699 | 0.441 | 0.772 | 0.623 | 0.525 | 0.506 | 0.45 | 0.514 | 0.422 | 0.305 | 0.314 | 0.346 | 0.326 |
